Source: the Biogen ADME set (Fang et al. 2023)
Values after ≈ are worked out from the molar mass of the structure shown.

Conditions: for aqueous solubility: pH 6.8

Row | SMILES | MDR1-MDCK efflux ratio | intrinsic clearance, human liver microsomes [mL/min/kg] | intrinsic clearance, rat liver microsomes [mL/min/kg] | aqueous solubility [µg/mL] | fraction unbound, rat plasma | fraction unbound, human plasma
1 | Cc1sc2nc(CN3CCOCC3)nc(N3CCN(c4ccncc4)CC3)c2c1C | 28.9 | 18.3 | 281 | 76.6 (≈ 180 µM) |  | 
2 | NCCOc1cccc(C(F)(F)F)n1 |  |  |  | 21.8 (≈ 105 µM) |  | 
3 | C[n+]1cc2c3c(ccc2c2ccc4cc5c(cc4c21)OCO5)OCO3 | 13.5 | 8.23 | 58.2 | 32.2 |  | 
4 | CCOc1ccc(OCCN2CCN(C(C)=O)CC2)cc1 | 0.671 | ≤ 4.74 | 17.5 |  |  | 
5 | CC(C)CC(NC(=O)C(O)C(N)Cc1ccccc1)C(=O)O (stereo not drawn) | 0.744 |  |  |  | 0.347 | 
6 | CN(Cc1nc2ccccc2n1C)c1ccnc(-c2ccccc2)n1 |  | 105 | 1740 |  |  | 
7 | COc1cc2c(cc1OC)CN(C(=O)C1CCCN(C(C)=O)C1)CC2 (stereo not drawn) | 57.1 | ≤ 4.74 | 19.9 | 55 (≈ 159 µM) |  | 
8 | CN(C)c1ncc(CN2CCC(Cc3ccc(F)cc3)CC2)s1 |  | 43.1 | 2570 |  |  | 
9 | O=C(c1noc2c1CCCC2)N1CCN(c2ncccn2)CC1 | 0.624 | 10.3 | 2910 | 53.3 (≈ 170 µM) |  | 
10 | O=C1N[C@@H]2CCN(C(=O)c3ccc(-c4ccccc4)cc3)[C@@H]2C(=O)N1c1ccc(F)cc1 | 44.4 | ≤ 4.74 | 29.7 | 31.5 (≈ 73.3 µM) |  | 
11 | CCCc1cc(CNC(=O)N2C[C@H]3C[C@@H](C2)c2cccc(=O)n2C3)on1 | 16.4 | 16.6 | 90.4 |  |  | 
12 | COCCN(C)c1ccc(CN2CCOC3(CCCC3)C2)cn1 | 0.619 | 38.5 | 633 |  |  | 
13 | COc1cc(F)c(NCC(=O)Nc2ccc(C)cc2)cc1OC | 0.669 | 31.7 | 269 | 47.6 (≈ 150 µM) |  | 
14 | CC1(C)O[C@@](C)([C@H]2CC3(CCNCC3)CO2)CC[C@@H]1O | 0.443 | ≤ 4.74 | ≤ 10.7 | 42.6 (≈ 150 µM) |  | 
15 | CC(C)c1nc(CCn2ccnc2-c2ccoc2)cs1 | 0.661 | 234 | 2160 | 29.2 (≈ 102 µM) |  | 
16 | CC(C)[C@@H](C(=O)Nc1nc2ccccc2[nH]1)N1Cc2ccccc2C1=O |  | ≤ 4.74 | 262 | 11 (≈ 31.6 µM) |  | 
17 | Cc1cnn(Cc2nnc(-c3ccccc3)s2)c1 | 0.554 | 44 | 449 | 22.5 (≈ 87.8 µM) |  | 
18 | c1nc(N2CCC3(CCCCC3)C2)c2cn[nH]c2n1 | 0.8 | 8.33 | 710 |  |  | 
19 | O=C(Nc1cccc2ncccc12)[C@H]1CCCN(S(=O)(=O)c2ccccc2)C1 | 13 | 37.9 | 545 |  | 0.123 | 0.167
20 | c1cnc(NCc2cccc(-c3cccnc3)c2)nc1 | 0.571 | 19.6 | 148 |  |  | 

Row | SMILES | MDR1-MDCK efflux ratio | intrinsic clearance, human liver microsomes [mL/min/kg] | intrinsic clearance, rat liver microsomes [mL/min/kg] | aqueous solubility [µg/mL] | fraction unbound, rat plasma | fraction unbound, human plasma
21 | O=C(Cn1c(=O)c2cccn2c2ccccc21)NCCCN1CCCC1 | 78.1 | ≤ 4.74 | 634 | 52.3 (≈ 148 µM) |  | 
22 | COc1cc(OC)cc(N(CCNC(C)C)c2ccc3ncc(-c4cnn(C)c4)nc3c2)c1 | 106 | 17.6 | 790 |  |  | 
23 | Cc1cccc2cc(C(N)=S)/c(=N/Nc3ccccc3)oc12 |  |  |  | 0.48 (≈ 1.55 µM) |  | 
24 | CN(Cc1ccc(C(=O)O)cc1)C(=O)c1ccnn1C | 0.663 | ≤ 4.74 | ≤ 10.7 |  |  | 
25 | Cc1ccccc1C(=O)N1CCC(O)(Cn2ccnc2C)CC1 | 4.93 | 4.92 | 100 |  |  | 
26 | FC(F)(F)c1ccc(Nc2nc3cc(Oc4ccnc(-c5ncc(C(F)(F)F)[nH]5)c4)ccc3[nH]2)cc1 | 0.86 |  |  | 0.35 (≈ 0.694 µM) |  | 
27 | CN(CC(N)=O)Cc1cc2c(cc1Br)OCO2 | 0.761 | 10.4 | 324 | 69.7 (≈ 231 µM) |  | 
28 | CC1(COc2ccc3c(c2)ncn3-c2ccc3cccc(OS(=O)(=O)C(F)(F)F)c3n2)COC1 |  |  |  | 0.4 (≈ 0.811 µM) |  | 
29 | COc1cc2c(c(OC)c1OC)CCNC(=O)C2 |  | ≤ 4.74 | ≤ 10.7 | 49.6 (≈ 198 µM) |  | 
30 | CCS(=O)(=O)N1CC(CC#N)(n2cc(-c3ncnc4[nH]ccc34)cn2)C1 | 202 | ≤ 4.74 | 19.2 |  | 1 | 0.239
31 | Cc1cc2occ(CC(=O)NC3CCN(C)CC3)c2cc1C(C)C | 6.32 | 13.9 | 407 | 34.4 (≈ 105 µM) |  | 
32 | O[C@H]1CC[C@H](Nc2ncc3nc(Nc4c(F)cc(F)cc4F)n([C@H]4CCOC4)c3n2)CC1 | 93.4 | ≤ 4.74 | 10.9 |  |  | 
33 | COc1cc([C@H](CC(=O)O)c2ccc(C)c(CN3C[C@@H](C)Oc4ccccc4S3(=O)=O)c2)cc2nnn(C)c12 | 99.5 |  |  |  |  | 
34 | COc1ccc(NS(=O)(=O)c2ccc3c(c2)n(C)c(=O)n3C)cc1 |  |  |  | 2.05 (≈ 5.9 µM) |  | 
35 | Cc1nc(C2(NCc3cccc(C#N)c3)CCCC2)no1 | 0.681 | 13.3 | 505 | 47.6 (≈ 169 µM) |  | 
36 | Cc1ncccc1CNc1nnc(C(C)(C)C)s1 | 1.28 | ≤ 4.74 | 19.3 | 40.9 (≈ 156 µM) |  | 
37 | O=C([C@H]1CCCN(Cc2ccc(Cl)cc2)C1)N1CCc2ccccc2C1 | 0.788 | 251 | 3840 | 43.2 (≈ 117 µM) |  | 
38 | CC(=O)NC1CCC(NCCc2c(C)cccc2C)CC1 (stereo not drawn) | 19.8 | ≤ 4.74 | 1140 |  |  | 
39 | O=C(c1ccc(-c2ccncc2)cc1)N1CCC(F)(F)CC1 |  | ≤ 4.74 | 43.2 |  |  | 
40 | N#Cc1ccc(CNc2cnc3ccccc3c2)o1 | 0.343 | 187 | 238 |  |  | 

The next lines start with the values.

Row | MDR1-MDCK efflux ratio | intrinsic clearance, human liver microsomes [mL/min/kg] | intrinsic clearance, rat liver microsomes [mL/min/kg] | aqueous solubility [µg/mL] | fraction unbound, rat plasma | fraction unbound, human plasma | SMILES
41 | 1.6 | 72.8 | 571 | 2.35 (≈ 5.88 µM) |  |  | O=C(c1ccc2[nH]ccc2c1)N1CCCC(c2cccc(-c3ccc(F)cc3)n2)C1 (stereo not drawn)
42 |  | ≤ 4.74 | ≤ 10.7 |  |  |  | N=c1ccn2c(n1)O[C@@H]1[C@@H](O)[C@@H](CO)O[C@H]12
43 | 1.3 | 14.6 | 397 | 50.1 (≈ 187 µM) |  |  | Cc1nnc(-c2ccccc2-c2ccc(O)cc2)s1
44 | 1.59 | ≤ 4.74 | ≤ 10.7 | 31.5 (≈ 127 µM) |  |  | CCCn1nccc1NC(=O)c1c(C)noc1C
45 | 8.5 | ≤ 4.74 | ≤ 10.7 | 1.95 (≈ 3.4 µM) |  |  | CN(c1ccc(NC(=O)Nc2ccc(OC(F)(F)F)cc2)cc1)c1ccnc(Nc2cccc(S(N)(=O)=O)c2)n1
46 | 24.7 | 191 | 1450 | 10.1 (≈ 23.5 µM) | 0.0797 | 0.0566 | C=CC(=O)N1CCC(CNc2ncnc(N)c2-c2ccc(Oc3ccccc3)cc2)CC1
47 |  | ≤ 4.74 | 28.6 |  |  |  | c1ccc(-c2cn(C3CNC3)nn2)cc1
48 | 7.58 | ≤ 4.74 | 50.4 |  |  |  | COc1ccc(CN2CCN(C(=O)C3CCN(C(=O)C4CC4)CC3)CC2)cc1
49 | 1.83 | 21.5 | 1510 | 49.3 (≈ 117 µM) |  |  | COc1ccc(C(=O)c2ccccc2)c(Oc2nc3c(c(=O)n(C)c(=O)n3C)n2C)c1
50 |  |  |  | 23.3 (≈ 91.8 µM) |  |  | CCc1noc(COc2c(C)ccnc2Cl)n1
51 |  | 364 | 2380 |  |  |  | Cc1ccc(S(=O)(=O)Nc2ccc3c(c2)CCCN3C(=O)c2cccs2)cc1C
52 | 20 | 6.6 | 223 | 68.8 (≈ 177 µM) |  | 0.117 | CNC(=O)c1cccc(NC(=O)N2CCC(Oc3ccccc3Cl)CC2)c1
53 | 0.776 | 57.4 | 518 | 25.8 (≈ 81.4 µM) |  |  | CC(C)(C)c1nnnn1CC(=O)NC12CC3CC(CC(C3)C1)C2
54 |  | ≤ 4.74 | 31.2 | 21.9 (≈ 109 µM) |  |  | Cc1cc(Oc2cnccn2)ccc1N
55 | 0.527 | 133 | 1580 | 16.1 (≈ 47.3 µM) |  |  | COc1cccc(CN2Cc3ccccc3OC3(CCOCC3)C2)c1
56 |  | ≤ 4.74 | 47.9 |  |  |  | O=c1n(Cc2ccccn2)nc2n1-c1cc(Cl)ccc1C1=NCCN12
57 |  |  |  | 13.1 (≈ 51 µM) |  |  | Fc1cccc(Oc2nnnn2-c2ccccc2)c1
58 | 1.01 | ≤ 4.74 | ≤ 10.7 | 58.2 (≈ 264 µM) |  |  | NC(=O)CC1CCN(c2ncccn2)CC1
